The text below walks through data of US7652064B2, “AMPA receptor potentiators” (Eli Lilly and Company, priority 2005, dated 2010).

The experiment deals with T1, human iGluR4 (Homo sapiens, UniProt P48058).
T1 construct: expressed in transfected cells; host or cells: HEK293
Kind of experiment: Whole-cell voltage clamp electrophysiology of AMPA receptor potentiation in HEK293 cells stably expressing human iGluR4. Conditions: voltage-clamped at −60 mV, 1 mM glutamate, fit to the Hill equation, read-out: activity (EC50, potentiation of current evoked by 1 mM glutamate). Format: cell-based. From the text:
HEK293 cells stably expressing human iGluR4 (obtained as described in European Patent Application Publication No. EP-A1-0583917) are used in the electrophysiological characterization of AMPA receptor potentiators. The extracellular recording solution contains (in mM): 140 NaCl, 5 KCl, 10 HEPES, 1 MgCl2, 2 CaCl2, 10 glucose, pH=7.4 with NaOH, 295 mOsm kg-1. The intracellular recording solution contains (in mM): 140 CsCl, 1 MgCl2, 10 HEPES, (N-[2-hydroxyethyl]piperazine-N1-[2-ethanesulfonic acid]) 10 EGTA (ethylene-bis(oxyethylene-nitrilo)tetraacetic acid), pH=7.2 with CsOH, 295 mOsm kg-1. With these solutions, recording pipettes have a resistance of 2-3 MΩ. […] Responses to 1 mM glutamate are then determined in the presence of test compound. […]
In order to determine the potency of test compounds, the concentration of the test compound, both in the bathing solution and co-applied with glutamate, is increased in half log units until the maximum effect was seen. […] Reversibility of test compound activity is determined by assessing control glutamate 1 mM responses. Once the control responses to the glutamate challenge are re-established, the potentiation of these responses by 100 μM cyclothiazide is determined by its inclusion in both the bathing solution and the glutamate-containing solution. In this manner, the efficacy of the test compound relative to that of cyclothiazide can be determined. […]

Molecules are shown by their SMILES.

T1 sequence (P48058 21-902): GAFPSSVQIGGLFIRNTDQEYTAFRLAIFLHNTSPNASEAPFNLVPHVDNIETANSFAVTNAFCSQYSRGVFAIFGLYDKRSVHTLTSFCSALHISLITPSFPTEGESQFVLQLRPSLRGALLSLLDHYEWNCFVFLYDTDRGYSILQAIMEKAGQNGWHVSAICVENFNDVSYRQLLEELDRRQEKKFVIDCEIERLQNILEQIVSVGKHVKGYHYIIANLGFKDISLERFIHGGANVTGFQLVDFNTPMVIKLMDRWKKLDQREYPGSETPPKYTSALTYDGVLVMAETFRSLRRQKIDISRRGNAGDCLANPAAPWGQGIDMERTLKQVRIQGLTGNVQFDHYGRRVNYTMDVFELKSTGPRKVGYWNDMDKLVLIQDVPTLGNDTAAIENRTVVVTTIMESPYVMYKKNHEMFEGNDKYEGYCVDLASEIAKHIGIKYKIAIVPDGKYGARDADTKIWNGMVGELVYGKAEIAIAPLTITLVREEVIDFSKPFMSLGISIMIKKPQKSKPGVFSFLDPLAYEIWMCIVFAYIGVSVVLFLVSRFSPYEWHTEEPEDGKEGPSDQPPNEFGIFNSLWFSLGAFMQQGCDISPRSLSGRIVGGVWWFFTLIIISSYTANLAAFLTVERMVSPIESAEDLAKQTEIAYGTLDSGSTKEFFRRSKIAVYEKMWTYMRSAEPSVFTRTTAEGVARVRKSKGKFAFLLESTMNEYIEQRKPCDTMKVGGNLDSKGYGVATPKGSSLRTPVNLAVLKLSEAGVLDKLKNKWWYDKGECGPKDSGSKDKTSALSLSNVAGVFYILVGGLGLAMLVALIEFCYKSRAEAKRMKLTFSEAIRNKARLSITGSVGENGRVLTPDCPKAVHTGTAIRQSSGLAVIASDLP

On to `CCOc1cc(C(=O)O)ccc1-c1ccc(-c2sccc2NS(=O)(=O)C(C)C)cc1` [Example 1, 2-Ethoxy-4′-[3-(propane-2-sulfonylamino)-thiophen-2-yl]-biphenyl-4-carboxylic acid], for which the concentration for a half-maximal effect (EC50) was found to be 0.145 µM.

By EC50 is commonly meant the concentration giving half of the maximal effect.
